One may read the MIC as the lowest concentration that inhibits growth of the organism.

Marks after values point to notes of the source that are not given here.

The values that follow come from paper PMC9721424, “Novel N-methylsulfonyl-indole derivatives: biological activity and COX-2/5-LOX inhibitory effect with improved gastro protective profile and reduced cardio vascular risks” (Journal of Enzyme Inhibition and Medicinal Chemistry, 2022).

For one series, the system named is stomach mucosa. Kind of series: Ulcerogenic liability (ulcer index). Type of series: in vivo. The note with it: rats, 50 mg/kg dosage for three consecutive days, mean of 6 rats. The method, then:
In this study, adult male Wister albino rats weighing 160–180 g were used. Before any experimental procedure, rats were given 14 days to acclimate. These rats were maintained in a controlled setting with food and water available. All experiments were conducted in accordance with laboratory animal care guidelines. All experimental procedures were carried out in accordance with the regulations of the Committee of Ethics for Scientific Research on Living Organisms, Faculty of Pharmacy, Nahda University, Beni-Suef (NUB). The approval number was (NUB-019–025). […] Before drug administration, rats were fasted for 18 h and then separated into four groups. The control group received a suspension of the vehicle (10% DMSO in saline was given P.O (100 mg/kg) once daily). […] Rats were given the required dose for three consecutive days. Following the last dose, the stomachs of each rat were dissected and opened via the greater curvature and rinsed with saline. For investigation, the dissected stomach was stretched with pins on a cork board. Through illuminated magnifying lenses, the stomach mucosa was examined for the existence of ulcers. Cho and Ogle’s method[45]^,[46] was used to calculate the ulcer index.

The subject of series [1] is heart function biomarkers (LDH, CK-MB, and troponin). Nature of the series: Cardiac function biomarkers in rat serum. Type of series: in vivo, rats. As to conditions: 50 mg/kg/day p.o. for 2 weeks, mean ± SEM. How it is done:
(§1) Eighteen rats were divided into three groups at random (6 animals in each group). The first group was given a vehicle and served as normal control. […] Ketamine (100 mg/kg) was used to anaesthetise the animals on the 15th day. Blood samples were obtained from the retro orbital, allowed to clot, centrifuged at 1000 g for 15 min, and utilised to examine heart function biomarkers (LDH, CK-MB, and troponin). The abdomen of each rat was opened, and the heart was extracted and washed in ice-cold physiological saline before being harnessed for histological investigation.

In another series the test system is stomach. Nature of the series: Histopathological examination of stomach. As to conditions: rat, in vivo. Type of series: in vivo, rats. The method, then: In brief, the stomachs of each animal group’s rat were fixed in 10% neutral buffered formalin for 48 h. The sections were then dehydrated, cleared, fixed in paraffin, sectioned ([…]), and stained with H&E stain.

Another series concerns heart. Nature of the series: Histopathological examination of the heart. Type of series: in vivo. As to conditions: rats, two weeks administration, H&E stain. The method, then:
as §1

For series [2] the following is noted: antimicrobial and antifungal activity; cited from earlier work.
The subject of series [3] is Gram-positive bacteria, Gram-negative bacteria, and yeast fungus. Kind of series: Disc diffusion antimicrobial screening, whole panel. The series is classed as cell-based. As to conditions: all tested Gram-positive and Gram-negative bacteria, read-out: diameters of inhibition zones. How it is done: All compounds were screened for their antimicrobial activity at the Microbiology and Immunology Department, Faculty of Pharmacy, Beni-Suef University. The antimicrobial activity screening was carried out using the disc diffusion method, as described earlier, with some adjustments.
For each indicator microbe, a solution of half McFarland turbidity was prepared in sterile saline, followed by surface streaking of the strains on Mueller-Hinton agar with a sterile cotton swab. Then, sterile filter paper discs (5 mm diameter) preloaded with 100 µg of each compound were applied to the surface of the pre-inoculated plates. Then, the plates were chilled at 4 °C for 100 min before being incubated overnight at the proper temperature for microbial growth. Finally, the diameter of the inhibition zones around each disc was measured to evaluate the antimicrobial activity of the compounds. Ciprofloxacin was used as a standard antibacterial agent at a concentration of 20 µg/disc. Furthermore, DMSO-loaded discs were used as a negative control.
In general terms: A growth-free zone around the sample is the usual read-out of agar diffusion tests.

In the case of `Cc1ccc(-c2cc(C(F)(F)F)nn2-c2ccc(S(N)(=O)=O)cc2)cc1` [Celecoxib, reference compound], the Ulcer index with stomach mucosa was 3.79^b. This compound also had a Ulcer index with stomach mucosa (listed as celecoxib) of 3.79. For the same compound, in series [1], the CK-MB is on record as 0.635 ± 0.065^a ng/ml, the LDH is recorded as 690 ± 08^a U/L and the “Troponin I” value is 0.1500 ± 0.0420^a ng/ml. For the same compound, the stomach histopathology finding result in the series with stomach is “multiple complete ulcers and superficial mucosal erosions with disrupted mucous layer”. Besides, the heart histopathology finding result with heart is on record as “scattered inflamed cardiac muscle fibres with vacuolar degenerated myocytes”.
As for `O=C(O)c1cn(C2CC2)c2cc(N3CCNCC3)c(F)cc2c1=O` [ciprofloxacin], the MIC in series [2] is less than 3.90 µg/mL. In addition, the zone of inhibition at 20 µg/disc in series [3] lay in the range of 34 to 48 mm.
